The structures appear in SMILES notation. pIC50: −log10 of the molar value.

Sequence of TPM3-TRKA fusion protein (P06753+P04629 fused): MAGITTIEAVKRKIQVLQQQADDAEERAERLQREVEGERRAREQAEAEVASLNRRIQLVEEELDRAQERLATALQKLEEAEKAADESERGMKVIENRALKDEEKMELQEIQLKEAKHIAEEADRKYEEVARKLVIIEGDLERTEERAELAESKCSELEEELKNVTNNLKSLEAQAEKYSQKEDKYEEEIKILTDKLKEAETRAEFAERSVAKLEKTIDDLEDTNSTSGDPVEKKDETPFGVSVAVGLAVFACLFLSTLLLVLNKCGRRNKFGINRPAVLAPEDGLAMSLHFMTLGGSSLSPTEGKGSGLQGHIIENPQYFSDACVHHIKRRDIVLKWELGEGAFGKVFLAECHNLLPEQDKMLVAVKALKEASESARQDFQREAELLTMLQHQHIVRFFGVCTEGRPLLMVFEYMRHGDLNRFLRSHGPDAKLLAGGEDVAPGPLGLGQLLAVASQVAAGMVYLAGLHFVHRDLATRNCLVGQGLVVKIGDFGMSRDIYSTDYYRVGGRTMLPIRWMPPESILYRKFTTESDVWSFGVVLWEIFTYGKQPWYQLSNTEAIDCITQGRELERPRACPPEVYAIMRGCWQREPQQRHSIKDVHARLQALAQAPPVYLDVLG
Sequence of TPM3-TRKA fusion protein (Q96SW2 whole entry, the tested form may be a part): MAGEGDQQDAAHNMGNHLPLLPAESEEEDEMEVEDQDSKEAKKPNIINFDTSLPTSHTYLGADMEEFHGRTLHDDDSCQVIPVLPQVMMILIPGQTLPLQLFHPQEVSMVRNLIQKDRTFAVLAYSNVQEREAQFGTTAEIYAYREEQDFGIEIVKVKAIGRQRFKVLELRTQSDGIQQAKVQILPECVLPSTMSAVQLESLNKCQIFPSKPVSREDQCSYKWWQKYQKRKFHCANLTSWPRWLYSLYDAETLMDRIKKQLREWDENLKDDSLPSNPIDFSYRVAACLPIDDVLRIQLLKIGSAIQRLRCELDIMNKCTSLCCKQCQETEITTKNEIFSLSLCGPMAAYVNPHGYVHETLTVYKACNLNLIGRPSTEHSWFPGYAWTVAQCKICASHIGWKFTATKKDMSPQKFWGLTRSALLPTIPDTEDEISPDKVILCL
Sequence of TPM3-TRKA fusion protein (Q16531 whole entry partner, the tested form may be a part): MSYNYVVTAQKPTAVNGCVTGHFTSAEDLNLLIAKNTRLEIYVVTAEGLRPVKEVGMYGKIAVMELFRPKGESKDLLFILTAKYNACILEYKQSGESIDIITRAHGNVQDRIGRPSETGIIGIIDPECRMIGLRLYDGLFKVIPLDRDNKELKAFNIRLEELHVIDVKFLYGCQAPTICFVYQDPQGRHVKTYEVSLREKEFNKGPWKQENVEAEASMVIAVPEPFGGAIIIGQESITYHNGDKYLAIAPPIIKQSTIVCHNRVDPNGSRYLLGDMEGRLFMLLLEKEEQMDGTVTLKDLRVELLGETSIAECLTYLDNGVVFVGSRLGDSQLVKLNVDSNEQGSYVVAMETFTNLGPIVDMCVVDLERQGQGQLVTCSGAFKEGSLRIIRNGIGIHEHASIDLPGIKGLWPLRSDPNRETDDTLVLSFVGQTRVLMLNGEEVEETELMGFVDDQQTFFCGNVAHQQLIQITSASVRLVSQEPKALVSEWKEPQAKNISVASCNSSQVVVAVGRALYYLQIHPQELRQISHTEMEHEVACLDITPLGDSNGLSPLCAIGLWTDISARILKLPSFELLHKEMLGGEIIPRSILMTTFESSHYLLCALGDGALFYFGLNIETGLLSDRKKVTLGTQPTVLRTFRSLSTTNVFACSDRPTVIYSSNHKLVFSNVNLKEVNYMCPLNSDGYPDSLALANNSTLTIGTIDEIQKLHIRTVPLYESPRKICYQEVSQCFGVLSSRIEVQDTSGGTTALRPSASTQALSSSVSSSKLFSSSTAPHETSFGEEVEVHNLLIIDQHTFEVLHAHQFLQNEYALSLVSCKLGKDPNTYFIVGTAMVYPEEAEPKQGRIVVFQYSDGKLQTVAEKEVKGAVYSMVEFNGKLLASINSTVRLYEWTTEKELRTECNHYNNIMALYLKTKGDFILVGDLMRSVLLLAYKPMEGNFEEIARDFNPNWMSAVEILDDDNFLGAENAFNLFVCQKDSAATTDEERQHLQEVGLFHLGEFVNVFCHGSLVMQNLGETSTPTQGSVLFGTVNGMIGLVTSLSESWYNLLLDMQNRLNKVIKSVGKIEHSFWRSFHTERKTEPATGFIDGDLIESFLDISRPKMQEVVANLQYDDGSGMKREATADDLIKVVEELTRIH

The first assay addresses TPM3-TRKA fusion protein (Homo sapiens, UniProt P04629+P06753+Q96SW2). As to the kind of experiment: Immunoblotting of TPM3-TRKA in KM12 subcutaneous xenograft tumors. Type of assay: in vivo, Athymic nude mice. More on the design: The resulted chimeric proteins always retain the kinase domain of TRK proteins; TPM3 (N-terminal fusion partner, natural gene fusion); from tissue; host or cells: KM12 subcutaneous xenograft tumors in athymic nude mice. As to conditions: intraperitoneal or oral administration, eight hours after administration (FIG. 10). How it is done: In addition to cultured cells, athymic nude mice bearing KM12 subcutaneous xenograft tumors at the right flank were intraperitoneally treated with 10, 20, or 50 mg/kg CPD-053, CPD-027, or CPD-060. Four hours after drug administration, animals were sacrificed for immunoblotting of TPM3-TPKA in homogenized xenograft tumor masses. The label “a” or “b” represents two different samples of the same xenograft tumor.
Athymic nude mice bearing KM12 subcutaneous xenograft tumors at the right flank were intraperitoneally treated with 10, 20, or 50 mg/kg CPD-053, CPD-027, or CPD-060, as indicated in FIG. 3. Four hours after drug administration, animals were sacrificed for immunoblotting of TPM3-TPKA in homogenized xenograft tumor chunks. The label “a” or “b” represents two different chunks of the same xenograft tumor.
Athymic nude mice bearing KM12 subcutaneous xenograft tumors at the right flank were intraperitoneally or orally treated with bivalent compounds at indicated dose. Eight hours after drug administration, animals were sacrificed for immunoblotting of TPM3-TPKA in homogenized xenograft tumor samples.
Cultured cells were washed with cold PBS once and lysed in cold RIPA buffer supplemented with protease inhibitors and phosphatase inhibitors (Beyotime Biotechnology). The solutions were then incubated at 4° C. for 30 minutes with gentle agitation to fully lyse cells. For tumor tissues, tumors were cut into small pieces, milled with cold RIPA buffer using a mechanical homogenizer and lysed for 1 hour at 4° C. Cell lysates were centrifuged at 13,000 rpm for 10 minutes at 4° C. and pellets were discarded. Total protein concentrations in the lysates were determined by BCA assays (Beyotime Biotechnology). Cell lysates were mixed with Laemmli loading buffer to 1× and heated at 99° C. for 5 min. Proteins were resolved on SDS-PAGE and visualized by chemiluminescence. Images were taken by a ChemiDoc MP Imaging system (Bio-Rad). Protein bands were quantitated using the software provided by Bio-Rad.
All animal experiments were performed under protocols approved by the Institutional Animal Care and Use Committee (IACUC) of Cullgen. Athymic nude mice (male, 5-weeks old) received 5 million KM12 cells subcutaneously inoculated at the right flank site. Ten days following inoculation, tumors were approximately 500 mm3 in size. Tumor-bearing mice were treated intraperitoneally with vehicle or bivalent compounds at indicated doses. Tumor sizes and body weight of mice were measured every 2 days. In addition, immunoblotting assays were employed to assess the levels of TRKA fusion proteins in xenograft tumors around 500 mm^3 in size following drug administration. At indicated hours after drug administration, selected mice were sacrificed, tumors were resected. Small chunks of tumors were homogenized for immunoblotting of TPM3-TPKA and other proteins as indicated.
For the molecule `O=C1CCC(N2C(=O)c3ccc(OCCN4CCN(c5cccc(-c6cnc7ccc(N8CCC[C@@H]8c8cccc(F)c8)nn67)n5)CC4)cc3C2=O)C(=O)N1` (stereo partly drawn) [TR-173, 2-(2,6-dioxopiperidin-3-yl)-5-(2-(4-(6-(6-((R)-2-(3-fluorophenyl)pyrrolidin-1-yl)imidazo[1,2-b]pyridazin-3-yl)pyridin-2-yl)piperazin-1-yl)ethoxy)isoindoline-1,3-dione], the “TPM3-TRKA degradation in KM12 subcutaneous tumors” value is “exhibited the activities to induce TPM3-TRKA degradation”.

The next assay deals with KM12 cells. As to the kind of experiment: Cell viability assay (CellTiter-Glo) in KM12 cells. It counts as cell-based. The settings on record: Homo sapiens, 72 h; Table 2; KM12 cell viability, CellTiter-Glo, 3 days; read-out: IC50.
As to `Cc1ncsc1-c1ccc(CNC(=O)[C@@H]2C[C@@H](O)CN2C(=O)[C@@H](NC(=O)CCOCCOCCOCCOCCC(=O)N2CCN(c3ccc(C(=O)Nc4n[nH]c5ccc(Cc6cc(F)cc(F)c6)cc45)c(NC4CCOCC4)c3)CC2)C(C)(C)C)cc1` [CPD-041, (2S,4R)-1-((S)-2-(tert-butyl)-19-(4-(4-((5-(3,5-Difluorobenzyl)-1H-indazol-3-yl)carbamoyl)-3-((tetrahydro-2H-pyran-4-yl)amino)phenyl)piperazin-1-yl)-4,19-dioxo-7,10,13,16-tetraoxa-3-azanonadecanoyl)-4-hydroxy-N-(4-(4-methylthiazol-5-yl)benzyl)pyrrolidine-2-carboxamide], the negative-log IC50 (pIC50) is 6.40.

With `Cc1ncsc1-c1ccc(CNC(=O)[C@@H]2C[C@@H](O)CN2C(=O)[C@@H](NC(=O)CCCCC(=O)N2CCN(c3cccc(-c4cnc5ccc(N6CCC[C@@H]6c6cccc(F)c6)nn45)n3)CC2)C(C)(C)C)cc1` [CPD-001, (2S,4R)-1-((S)-2-(6-(4-(6-(6-((R)-2-(3-Fluorophenyl)pyrrolidin-1-yl)imidazo[1,2-b]pyridazin-3-yl)pyridin-2-yl)piperazin-1-yl)-6-oxohexanamido)-3,3-dimethylbutanoyl)-4-hydroxy-N-(4-(4-methylthiazol-5-yl)benzyl)pyrrolidine-2-carboxamide], the pIC50 was < 6.00.

For the molecule `Cc1ncsc1-c1ccc(CNC(=O)[C@@H]2C[C@@H](O)CN2C(=O)[C@@H](NC(=O)CCCCCCC(=O)N2CCN(c3ccc(C(=O)Nc4n[nH]c5ccc(Cc6cc(F)cc(F)c6)cc45)c(NC4CCOCC4)c3)CC2)C(C)(C)C)cc1` [CPD-033, (2S,4R)-1-((S)-2-(8-(4-(4-((5-(3,5-difluorobenzyl)-1H-indazol-3-yl)carbamoyl)-3-((tetrahydro-2H-pyran-4-yl)amino)phenyl)piperazin-1-yl)-8-oxooctanamido)-3,3-dimethylbutanoyl)-4-hydroxy-N-(4-(4-methylthiazol-5-yl)benzyl)pyrrolidine-2-carboxamide], the pIC50 was 7.00.

On to `Cc1ncsc1-c1ccc(CNC(=O)[C@@H]2C[C@@H](O)CN2C(=O)[C@@H](NC(=O)COCCOCCOCC(=O)N2CCN(c3cccc(-c4cnc5ccc(N6CCC[C@@H]6c6cccc(F)c6)nn45)n3)CC2)C(C)(C)C)cc1` [CPD-011, (2S,4R)-1-((S)-2-(tert-butyl)-14-(4-(6-(6-((R)-2-(3-Fluorophenyl)pyrrolidin-1-yl)imidazo[1,2-b]pyridazin-3-yl)pyridin-2-yl)piperazin-1-yl)-4,14-dioxo-6,9,12-trioxa-3-azatetradecanoyl)-4-hydroxy-N-(4-(4-methylthiazol-5-yl)benzyl)pyrrolidine-2-carboxamide], for which the pIC50 was < 6.00.

Still in this assay, the particulars now being: Homo sapiens, 72 h; Table 3; KM12 cell viability, CellTiter-Glo, 3 days; read-out: IC50.
Regarding `O=C1CCC(N2C(=O)c3ccc(OCCN4CCN(c5cccc(-c6cnc7ccc(N8CCC[C@@H]8c8cccc(F)c8)nn67)n5)CC4)cc3C2=O)C(=O)N1` (stereo partly drawn) [TR-173, 2-(2,6-dioxopiperidin-3-yl)-5-(2-(4-(6-(6-((R)-2-(3-fluorophenyl)pyrrolidin-1-yl)imidazo[1,2-b]pyridazin-3-yl)pyridin-2-yl)piperazin-1-yl)ethoxy)isoindoline-1,3-dione], the pIC50 was 8.05.

On to `O=C(CN1CCN(c2cccc(-c3cnc4ccc(N5CCC[C@@H]5c5cccc(F)c5)nn34)n2)CC1)NCCOCCOCCOCCOCCNc1cccc2c1C(=O)N(C1CCC(=O)NC1=O)C2=O` (stereo partly drawn) [TR-108, N-(14-((2-(2,6-dioxopiperidin-3-yl)-1,3-dioxoisoindolin-4-yl)amino)-3,6,9,12-tetraoxatetradecyl)-2-(4-(6-(6-((R)-2-(3-fluorophenyl)pyrrolidin-1-yl)imidazo[1,2-b]pyridazin-3-yl)pyridin-2-yl)piperazin-1-yl)acetamide], for which the negative-log IC50 (pIC50) is 8.40.

As for `O=C(CN1CCN(c2cccc(-c3cnc4ccc(N5CCC[C@@H]5c5cccc(F)c5)nn34)n2)CC1)NCCOCCNc1ccc2c(c1)C(=O)N(C1CCC(=O)NC1=O)C2=O` (stereo partly drawn) [TR-135, N-(2-(2-((2-(2,6-dioxopiperidin-3-yl)-1,3-dioxoisoindolin-5-yl)amino)ethoxy)ethyl)-2-(4-(6-(6-((R)-2-(3-fluorophenyl)pyrrolidin-1-yl)imidazo[1,2-b]pyridazin-3-yl)pyridin-2-yl)piperazin-1-yl)acetamide], the pIC50 was 9.05.

As for `O=C1CCC(N2C(=O)c3ccc(NCCOCCC(=O)N4CCN(c5cccc(-c6cnc7ccc(N8CCC[C@@H]8c8cccc(F)c8)nn67)n5)CC4)cc3C2=O)C(=O)N1` (stereo partly drawn) [TR-119, 2-(2,6-Dioxopiperidin-3-yl)-5-((2-(3-(4-(6-(6-((R)-2-(3-fluorophenyl)pyrrolidin-1-yl)imidazo[1,2-b]pyridazin-3-yl)pyridin-2-yl)piperazin-1-yl)-3-oxopropoxy)ethyl)amino)isoindoline-1,3-dione], the pIC50 is 8.80.

As to `O=C(CN1CCN(c2cccc(-c3cnc4ccc(N5CCC[C@@H]5c5cccc(F)c5)nn34)n2)CC1)NCCOCCOCCNc1cccc2c1C(=O)N(C1CCC(=O)NC1=O)C2=O` (stereo partly drawn) [TR-105, N-(2-(2-(2-((2-(2,6-dioxopiperidin-3-yl)-1,3-dioxoisoindolin-4-yl)amino)ethoxy)ethoxy)ethyl)-2-(4-(6-(6-((R)-2-(3-fluorophenyl)pyrrolidin-1-yl)imidazo[1,2-b]pyridazin-3-yl)pyridin-2-yl)piperazin-1-yl)acetamide], the negative logarithm of the IC50 (pIC50) was 8.00.

Take `O=C(CN1CCN(c2cccc(-c3cnc4ccc(N5CCC[C@@H]5c5cccc(F)c5)nn34)n2)CC1)NCCNc1ccc2c(c1)C(=O)N(C1CCC(=O)NC1=O)C2=O` (stereo partly drawn) [TR-130, N-(2-((2-(2,6-dioxopiperidin-3-yl)-1,3-dioxoisoindolin-5-yl)amino)ethyl)-2-(4-(6-(6-((R)-2-(3-fluorophenyl)pyrrolidin-1-yl)imidazo[1,2-b]pyridazin-3-yl)pyridin-2-yl)piperazin-1-yl)acetamide]: the pIC50 is 9.05.

`O=C(CN1CCN(c2ccc(C(=O)Nc3n[nH]c4ccc(Cc5cc(F)cc(F)c5)cc34)c(NC3CCOCC3)c2)CC1)NCCOCCOCCOCCNc1ccc2c(c1)C(=O)N(C1CCC(=O)NC1=O)C2=O` (stereo not drawn) [TR-163, N-(5-(3,5-Difluorobenzyl)-1H-indazol-3-yl)-4-(4-(14-((2-(2,6-dioxopiperidin-3-yl)-1,3-dioxoisoindolin-5-yl)amino)-2-oxo-6,9,12-trioxa-3-azatetradecyl)piperazin-1-yl)-2-((tetrahydro-2H-pyran-4-yl)amino)benzamide]: the pIC50 was 8.20.

Regarding `O=C(CN1CCN(c2ccc(C(=O)Nc3n[nH]c4ccc(Cc5cc(F)cc(F)c5)cc34)c(NC3CCOCC3)c2)CC1)NCCCCCNc1ccc2c(c1)C(=O)N(C1CCC(=O)NC1=O)C2=O` (stereo not drawn) [TR-164, N-(5-(3,5-Difluorobenzyl)-1H-indazol-3-yl)-4-(4-(2-((5-((2-(2,6-dioxopiperidin-3-yl)-1,3-dioxoisoindolin-5-yl)amino)pentyl)amino)-2-oxoethyl)piperazin-1-yl)-2-((tetrahydro-2H-pyran-4-yl)amino)benzamide], the pIC50 is 8.11.

The same assay, now with this note: Homo sapiens, 72 h; Table 4; KM12 cell viability, CellTiter-Glo, 3 days; read-out: IC50.
Regarding `O=C1CCC(N2C[C@H](c3cccc(C#CCN4CCN(c5cccc(-c6cnc7ccc(N8CCC[C@@H]8c8cccc(F)c8)nn67)n5)CC4)c3)OC2=O)C(=O)N1` (stereo partly drawn) [TR-223, 3-((S)-5-(3-(3-(4-(6-(6-((R)-2-(3-Fluorophenyl)pyrrolidin-1-yl)imidazo[1,2-b]pyridazin-3-yl)pyridin-2-yl)piperazin-1-yl)prop-1-yn-1-yl)phenyl)-2-oxooxazolidin-3-yl)piperidine-2,6-dione], the pIC50 was 7.95.

With `O=C1CCC(N2C(=O)c3ccc(N4CC(CN5CCN(c6ccc(C(=O)Nc7n[nH]c8ccc(Cc9cc(F)cc(F)c9)cc78)c(NC7CCOCC7)c6)CC5)C4)cc3C2=O)C(=O)N1` (stereo not drawn) [TR-231, N-(5-(3,5-Difluorobenzyl)-1H-indazol-3-yl)-4-(4-((1-(2-(2,6-dioxopiperidin-3-yl)-1,3-dioxoisoindolin-5-yl)azetidin-3-yl)methyl)piperazin-1-yl)-2-((tetrahydro-2H-pyran-4-yl)amino)benzamide], the negative logarithm of the IC50 (pIC50) was 8.52.

Values taken from patent US12065442B2, “Tropomyosin receptor kinase (TRK) degradation compounds and methods of use” (Cullgen (Shanghai), Inc., priority 2018, dated 2024).
